The subject of this assay is mice. Kind of assay: Locomotor activity (Opto M3 activity monitor) in mice. The format is in vivo, Swiss albino mice. To be noted: for effect on spontaneous locomotor activity, acute administration: 4 min period identical to FST, AZ-853 0.625, 1.25, 2.5 mg/kg, AZ-861 1.25 mg/kg, WAY-100635 0.3 mg/kg alone or combined; for Number of movements (individual animals): raw data. The source says:
The investigated compounds AZ-853 (8-(4-(4-(2-fluorophenyl)piperazin-1-yl)butyl)-1,3-dimethyl-1H-imidazo[2,1-f]purine-2,4(3H,8H)-dione and AZ-861 (1,3-dimethyl-8-(4-(4-(3-(trifluoromethyl)phenyl)piperazin-1-yl)butyl)-1H-imidazo[2,1-f]purine-2,4(3H,8H)-dione) were synthesised in the Department of Medicinal Chemistry, Faculty of Pharmacy, Jagiellonian University, and their synthesis was described earlier. AZ-853 and AZ-861 were suspended in 1% aqueous solution of Tween 80, and WAY-100635 (Sigma, Germany) was dissolved in 0.9% saline. In acute experiments, the selected compounds AZ-853 (0.156–2.5 mg/kg) and AZ-861 (0.625–2.5 mg/kg) were injected i.p. once 60 min before tests, whereas WAY-100635 (0.3 mg/kg) was administered subcutaneously (s.c.) 45 min before the test. […] In chronic experiments, AZ-853 and AZ-861 were administered i.p. once a day (between 9:00 AM and 10:00 AM) for 16 consecutive days at the minimum active doses selected from FST experiment, i.e. 0.625 and 1.25 mg/kg, respectively. […]. The control groups received 1% aqueous solution of Tween 80.
Locomotor activity was recorded with an Opto M3 multi-channel activity monitor (MultiDevice Software v.1.3, Columbus Instruments). The Swiss albino mice were individually placed in plastic cages (220 × 120 × 130 mm) for 30 min habituation period, and then the crossings of each channel (ambulation) were counted from […] to 6 min, that is the time equal to the observation period in FST. The cages were cleaned up with 70% ethanol after each mouse.
The Swiss albino mice were used in the experiment. AZ-853 and AZ-861 were injected once daily for 16 consecutive days. […]. FST, as described earlier, was performed on the 14th day just before the next treatment. To ensure that the effects observed in FST are not the result of increased motility of animals, on the 13th day, just before the next administration, the locomotor activity was measured as described earlier, from 2 to 6 min after test start, i.e. in the period identical to the duration of FST. Blood and organ collection was performed on the 17th day at 24 h after the last dose and fasting.

Where [1] appears, read: acute, 1.25 mg/kg i.p., measured from 3 to 6 min.

Molecules are shown by their SMILES. Where “and” joins values, the source holds several entries; their conditions need not be identical. Equal entries are not always repeated.

For `Cn1c(=O)c2c(nc3n(CCCCN4CCN(c5ccccc5F)CC4)ccn23)n(C)c1=O` [AZ-853, 8-(4-(4-(2-fluorophenyl)piperazin-1-yl)butyl)-1,3-dimethyl-1H-imidazo[2,1-f]purine-2,4(3H,8H)-dione], the “effect on spontaneous locomotor activity, acute administration” value is reported as “did not change the behavior of the animals”. Further, for the setting “acute, 0.625 mg/kg i.p., measured from 3 to 6 min”, the “Number of movements (mean)” value turned out to be 127.8. Further, the “Number of movements (individual animals)” value (acute, 0.625 mg/kg, 3 to 6 min) was 130 and 222 and 166 and 48 and 117 and 84. Also, the “Number of movements (mean)” value under setting [1] was 149.8. Also, for the setting “acute, 1.25 mg/kg, 3 to 6 min”, the “Number of movements (individual animals)” value is 200 and 171 and 90 and 115 and 119 and 204. The “Number of movements (mean)” value (acute, 2.5 mg/kg i.p., measured from 3 to 6 min) is reported as 156.8. Under “acute, 2.5 mg/kg, 3 to 6 min”, the “Number of movements (individual animals)” value was 116 and 258 and 120 and 200 and 205 and 42. Besides, the “Number of movements (mean)” value (repeated, 0.625 mg/kg, 24 h after 12th administration, during 4 min) is 519.5. Also, the “Number of movements (individual animals)” value (repeated, 0.625 mg/kg) was 820 and 399 and 687 and 223 and 606 and 272 and 558 and 551 and 418 and 661.
Turning to `Cn1c(=O)c2c(nc3n(CCCCN4CCN(c5cccc(C(F)(F)F)c5)CC4)ccn23)n(C)c1=O` [AZ-861, 1,3-dimethyl-8-(4-(4-(3-(trifluoromethyl)phenyl)piperazin-1-yl)butyl)-1H-imidazo[2,1-f]purine-2,4(3H,8H)-dione], the “effect on spontaneous locomotor activity, acute administration” value is reported as “did not change the behavior of the animals”. For the same compound, the “Number of movements (mean)” value under setting [1] is 167.3. In addition, the “Number of movements (individual animals)” value (acute, 1.25 mg/kg, 3 to 6 min) is 185 and 251 and 120 and 156 and 217 and 91 and 151. Further, the “Number of movements (mean)” value (repeated, 1.25 mg/kg, 24 h after 12th administration, during 4 min) amounted to 513.9. Under “repeated, 1.25 mg/kg”, the “Number of movements (individual animals)” value was 418 and 521 and 595 and 467 and 633 and 454 and 778 and 245.
